{"source": "patent US20220241311A1", "about": "“METHODS AND MATERIALS FOR TREATING GLYCOSYLATION DISORDERS” (priority 2018, published 2022)", "key": {"[1]": {"tested_on": "PGM1 deficient cell lines", "assay": "Lipid-linked and protein-linked oligosaccharide analysis"}, "[2]": {"conditions": "cited from earlier work"}, "ICAM-1": {"tested_on": "ICAM-1", "assay": "ICAM-1 Western blotting with galactose supplementation, patient skin fibroblasts", "conditions": "patient 5; all doses"}, "[3]": {"tested_on": "skin fibroblasts of Patient 2", "assay": "N- and O-linked glycan analysis by MALDI-TOF mass spectroscopy", "assay_type": "cell-based, human", "experimental": "Fibroblasts from Patient 2 were used for N- and O-linked glycan analysis with and without D-gal feeding in vitro. Upon reaching 100% confluence, the cells were washed twice with PBS and harvested using a cell scraper. The cells were then pelleted and washed with PBS by centrifugation. Fibroblast pellets were lysed in 200 μL PBS, and 200 μg protein from the cell lysate was denatured and precipitated with ˜2 Å volume of 100% propanol. N-linked and O-linked glycans were released from precipitated protein, and free oligosaccharides were purified from the supernatant. N-linked glycans were released from the cell pellets using the PNGase F kit from New England Biolabs (Ipswich, Mass., USA). O-linked glycans were released using β-elimination with sodium borohydride. The released N-linked glycans from cells or deprotonated total cell lysate were purified and desalted by solid phase extraction using a SepPak C18 and carbograph column. O-linked glycans from cells were purified and desalted using an AG 50W-X8 resin cation exchange column. N-linked glycans, O-linked glycans and oligosaccharides were permethylated with sodium hydroxide and iodomethane in dimethyl sulfoxide (DMSO). After permethylation, glycans were extracted with water/chloroform (2:1, vol/vol) in four steps and dried. Samples were then dissolved in 50% methanol, spotted with 11% 2,5-dihydroxylbenzoic acid matrix (1:1 vol/vol), and measured in triplicates and compared to two healthy controls. Measurements were performed by MALDI-TOF using the positive mode on Ultraflex MALDI-TOF/TOF system (BrunkerDaltonics, Billerica, Mass., USA) as described elsewhere (see, e.g., Xia et al., 2013 Anal Biochem 442:178-185)."}, "[4]": {"conditions": "4 days of 0.75 mM galactose following 18 hours of serum starvation"}}, "data": [{"smiles": "O=C[C@H](O)[C@@H](O)[C@@H](O)[C@H](O)CO", "note": "[D-gal, D-galactose]", "values": [{"measurement": "PLO profile", "setting": "[1]; all four patient cell lines", "result": "In none of the patients galactose supplementation had an effect"}, {"measurement": "Shortened LLO (Man9GlcNAc2-PP-dolichol)", "setting": "[1]; patient 8", "result": "No improvement"}, {"measurement": "Shortened LLO (Man9GlcNAc2-PP-dolichol)", "setting": "[1]; patients 1, 2, cell-line 2013Y, 10 mM D-gal, LLO profile similar to control", "result": "reduction of shortened LLO"}, {"measurement": "Peak concentration of D-gal in blood", "setting": "[2]; 1.0 g/kg dose", "result": 2.25, "unit": "mM"}, {"measurement": "Blood concentration of D-gal", "setting": "[2]; oral dose of 0.3 g/kg", "result": 0.75, "unit": "mM"}, {"measurement": "Blood peak concentration", "setting": "[2]; oral dose of 1.5 g/kg", "result": 3.5, "unit": "mM"}, {"measurement": "ICAM-1 expression", "setting": "ICAM-1", "result": "No improvement"}, {"measurement": "N-glycan m/z 2070.06 Hexose5HexNAc4, Level", "setting": "[3]; [4]", "result": "Normal"}, {"measurement": "N-glycan m/z 2431 Sial1Hexose5HexNAc4, Level", "setting": "[3]; [4]", "result": "Normal"}, {"measurement": "N-glycan m/z 2605 + 2431 monosialo biantennary glycans, Level", "setting": "[3]; [4]", "result": "High"}, {"measurement": "N-glycan m/z 2605 Fuc1Sial1Hexose5HexNAc4, Level", "setting": "[3]; [4]", "result": "High"}, {"measurement": "O-glycan m/z 1256 core1, disialyl T, Level", "setting": "[3]; [4]", "result": "Low"}, {"measurement": "O-glycan m/z 1706 core2, disalyl, sial2hexose2hexNAc2, Level", "setting": "[3]; [4]", "result": "High"}, {"measurement": "O-glycan m/z 1706 core2, disalyl, sial2hexose2hexNAc2, % Total glycan", "setting": "[3]; 4 days of 0.75 mM galactose following 18 hours of serum starvation, control range 14%", "result": 35.12, "unit": "%"}, {"measurement": "O-glycan m/z 1256 core1, disialyl T, % Total glycan", "setting": "[3]; 4 days of 0.75 mM galactose following 18 hours of serum starvation, control range 55.12%", "result": 11.22, "unit": "%"}, {"measurement": "N-glycan m/z 2070.06 Hexose5HexNAc4, % Total glycan", "setting": "[3]; 4 days of 0.75 mM galactose following 18 hours of serum starvation, control range <3.88%", "result": 3.65, "unit": "%"}, {"measurement": "N-glycan m/z 2431 Sial1Hexose5HexNAc4, % Total glycan", "setting": "[3]; 4 days of 0.75 mM galactose following 18 hours of serum starvation, control range <3.90%", "result": 2.23, "unit": "%"}, {"measurement": "N-glycan m/z 2605 Fuc1Sial1Hexose5HexNAc4, % Total glycan", "setting": "[3]; 4 days of 0.75 mM galactose following 18 hours of serum starvation, control range <4.46%", "result": 6.15, "unit": "%"}, {"measurement": "N-glycan m/z 2605 + 2431 monosialo biantennary glycans, % Total glycan", "setting": "[3]; 4 days of 0.75 mM galactose following 18 hours of serum starvation, control range <8.36%", "result": 8.38, "unit": "%"}, {"measurement": "Monosialo core 1 at m/z 895", "setting": "[3]; both in control and PGM1-CDG cells", "result": "increased"}, {"measurement": "Sialylation of N-glycans", "setting": "[3]; in vitro galactose treatment of fibroblasts", "result": "improved sialylation"}, {"measurement": "GlcNAcylation in N-linked or O-linked protein glycosylation profiles", "setting": "[3]; patient 2 fibroblasts after serum starvation", "result": "No change"}]}]}
